Results on 60 compounds are retold here after patent US5814646A, “Inhibitors of amyloid beta-protein production” (Eli Lilly and Company, priority 1995, dated 1998).

The first assay relates to Aβ production in 293 751 SWE and CHO 751 SWE cells (transfected with APP-751 Swedish mutation). The experiment in a line: Aβ production inhibition activity in cells (Aβ ELISA of conditioned media, normalized for cytotoxicity by MTT). The assay is classed as cell-based. To be noted: 2.5 μg/ml. On the procedure:
Two cell lines (human kidney cell line 293 and Chinese hamster ovary cell line CHO) were stably transfected with the gene for APP-751 containing the double mutation Lys651 -Met652 to Asn651 -Leu652 (APP-751 numbering) commonly called the Swedish mutation using the method described in Citron et al., (1992) Nature 360:672-674. The transfected cell lines were designated as 293 751 SWE and CHO 751 SWE, and were plated in Corning 96 well plates at 2.5×10^4 or 1×10^4 cells per well respectively in Dulbecco's minimal essential media plus 10% fetal bovine serum. Following overnight incubation at 37° C. in an incubator equilibrated with 10% carbon dioxide (CO2), the media were removed and replaced with 200 μL per well of media containing a test compound. After a two hour pretreatment period, the media were again removed and replaced with fresh media containing the test compound and the cells were incubated for an additional two hours.
Test compound stocks were prepared in DMSO such that at the final concentration used in the treatment, the concentration of DMSO did no exceed 0.5%. After treatment, plates were centrifuged in a Beckman GPR at 1200 rpm for five minutes at room temperature to pellet cellular debris from the conditioned media. From each well, 100 μL of conditioned media were transferred into an ELISA plate precoated with antibody 266 against βAP-13-28 (Seubert et al., supra.) and stored at 4° C. overnight. An ELISA assay employing labeled antibody 6C6 (against βAP-1-16) was run the next day to measure the amount of Aβ produced.
Cytotoxic effects of the test compounds were measured by a modification of the method of Hansen et al., (1989) J. Immun. Meth. 119:203-210. To the cells remaining in the tissue culture plate, was added 25 μL of a 3, (4,5-dimethylthiazol-2-yl)2,5-diphenyltetrazolium bromide (MTT) stock solution (5 mg/mL) to a final concentration of […]. Cells were incubated at 37° C. for one hour, and cellular activity was stopped by the addition of an equal volume of MTT lysis buffer (20% w/v sodium dodecylsulfate in 50% DMF, pH 4.7). Complete extraction was achieved by overnight shaking at room temperature. The difference in the OD562 nm and the OD650 nm was measured in a Molecular Devices UVmax microplate reader as an indicator of the cellular viability.
The results of the Aβ ELISA were fit to a standard curve and expressed as ng/mL Aβ peptide. In order to normalize for cytotoxicity, these Aβ results were divided by the MTT results and expressed as a percentage of the results from a drug -free control.
The test compounds were assayed for Aβ production inhibition activity in cells at […] using the test. The results presented in Table 1 are the mean and standard deviation of at least six replicate assays. IC50 means the concentration of test compound in micromoles/liter required to inhibit Aβ production by 50%.
As to `CC1(C)CC(C(=O)Nc2ccc(Cl)c(Cl)c2)CC(C)(C)N1` [Compound 231], the “Aβ Production Inhibition Activity, % inhibition @ 2.5 μg/ml” value is 40-51%.

Still in this assay, the particulars now being: 5 μg/ml.
Take `CC(C)(C)c1ccc(COc2cccc(CN(O)C(=S)NCc3ccc(Cl)c(Cl)c3)c2)cc1` [Compound 51]: the inhibition (in general, the drop in the measured response relative to a control, in per cent) at 5 µg/mL was 38%.
Take `Cc1ccc(C)c(COc2ccc(CN(O)C(=S)NCc3ccccc3)cc2)c1` [Compound 58]: the inhibition at 5 µg/mL amounted to 32%.
Still for that read-out and setting: the value for `CCCCCCNC(=S)N(O)Cc1ccc(OCc2ccc(Cl)c(Cl)c2)cc1` [Compound 55] was 37%; that for `CCCCCCNC(=S)N(O)Cc1ccc(OCc2ccc(CCCC)cc2)cc1` [Compound 63] was 9%.

Staying with this assay, now noted: 10 μg/ml, % of drug-free control, normalized to MTT.
For the compound `Cc1cccc(CNC(=S)N(O)Cc2ccc(-c3ccc(C(C)(C)C)cc3)cc2)c1` [Compound 82], the inhibition at 10 µg/mL was 30%.
Consider `CCCCCCNC(=S)Nc1ccccc1Oc1ccc(C(C)(C)C)cc1` [Compound 185], for which the inhibition at 10 µg/mL came out at 21%.
In the case of `CCCc1cc(C(C)(C)C)ccc1Oc1ccc(NC(=S)NCc2cccc(C)c2)cc1` [Compound 194], the inhibition at 10 µg/mL stood at 31%.
Consider `CC(c1cccc(Oc2ccc(C(C)(C)C)cc2)c1)N(O)C(=O)NCc1ccccc1` (stereo not drawn) [Compound 46], for which the inhibition at 10 µg/mL is 68%.
Take `CCCCOc1ccc(COc2cccc(CN(O)C(=S)NCc3ccccc3)c2)cc1` [Compound 66]: the inhibition at 10 µg/mL was 21%.
Same read-out and setting: to `CC(c1cccc(Oc2ccc(C(C)(C)C)cc2)c1)N(C(=S)NCc1ccccc1)N(C)C` (stereo not drawn) [Compound 38] belongs 32%; to `O=C(Nc1ccc(Cl)cc1)Nc1nncs1` [Compound 256], 42%.
The same measure, in the same setting: to `CSc1ccc(NC(=O)Nc2ccc(Cl)cc2Cl)cc1` [Compound 159] belongs 4%; to `Cc1nnc(NC(=O)Nc2c(C)cccc2C)s1` [Compound 251], -13%.
`CCCCCCNC(=S)N(O)Cc1cccc(S(=O)(=O)c2ccc(C(C)(C)C)cc2)c1` [Compound 93]: the “Aβ Production Inhibition Activity, % inhibition at 10 μg/ml” value was 13%.
For `CNC(=O)Nc1nnc(Br)s1` [Compound 253], the inhibition at 10 µg/mL worked out at 2%.
Still for that read-out and setting: to `CCCCCCC(c1cccc(Oc2ccc(C(C)(C)C)cc2)c1)N(O)C(=S)Nc1ccc(Cl)c(C(F)(F)F)c1` (stereo not drawn) [Compound 35] belongs 9%; to `Cc1ccc(CNC(=S)Nc2ccccc2Oc2ccc(C(C)(C)C)cc2)cc1C` [Compound 184], 36%; to `COc1ccc(CNC(=S)N(O)C(C)c2cccc(Oc3ccc(C(C)(C)C)cc3)c2)cc1OC` (stereo not drawn) [Compound 11], 31%.
Same read-out and setting: the value for `COc1ccc(NC(=O)Nc2ccc(Cl)c(Cl)c2)c(OC)c1` [Compound 144] was 41%.
As for `CC(C)(C)c1ccc(Oc2ccc(NC(=S)NCc3cccnc3)cc2)cc1` [Compound 121], the inhibition at 10 µg/mL was 37%.
Still for that read-out and setting: to `CNC(=O)N(C)c1nnc(Br)s1` [Compound 254] belongs 11%; to `CSc1ccc(NC(=O)Nc2ccc(Cl)cc2)cc1` [Compound 156], 13%.

Still in this assay, the particulars now being: 2 h pretreatment + 2 h incubation.
In the case of `CC(C)(C)c1ccc(Oc2ccc(NC(=S)NCc3nnc(C(F)(F)F)s3)cc2)cc1` [Compound 134], the IC50 – broadly, the concentration needed to halve the response being measured – amounted to 10.2 µM.
As to `CC(C)(C)c1ccc(Oc2ccc(NC(=S)NCc3ccc(F)cc3)cc2)cc1` [Compound 113], the half-inhibitory concentration (IC50) amounted to 5.6 µM.
Same read-out and setting: to `CCCCCCSc1nnc(NC(=O)Nc2ccc(Cl)c(Cl)c2)s1` [Compound 239, 1-(5-hexylthio-1,3,4-thiadiazol-2-yl)-3-(3,4-dichlorophenyl)urea] belongs 1.4 µM; to `CC(C)(C)c1ccc(Oc2cccc(NC(=S)NCc3ccccc3)c2)cc1` [Compound 186], 9 µM; to `Cc1ccc(CNC(=S)N(O)C(C)c2cccc(Oc3ccc(C(C)(C)C)cc3)c2)cc1` (stereo not drawn) [Compound 7], 15.6 µM.
For `CCCCCCNC(=S)Nc1ccc(Oc2ccc(C(C)(C)C)cc2)cc1` [Compound 135], the IC50 is 10.6 µM.
As for `CC(C)(C)c1ccc(Oc2ccccc2CN(O)C(=S)NCc2ccccc2)cc1` [Compound 180], the 50% inhibitory concentration (IC50) came out at 11.6 µM.
`CC(C)(C)c1ccc(Oc2ccc(NC(=S)Nc3cccc(C(F)(F)F)c3)cc2)cc1` [Compound 175]: the IC50 came to 7.3 µM.
Same read-out and setting: to `CCCCCCNC(=S)NCc1cccc(Oc2ccc(C(C)(C)C)cc2)c1` [Compound 42] belongs 17.2 µM.
Same read-out and setting: the value for `S=C(Nc1ccc(Cl)cc1)Nc1ccc(Cl)c(Cl)c1` [Compound 139] was 6.6 µM; that for `CC(c1cccc(Oc2ccc(C(C)(C)C)cc2)c1)N(O)C(=S)NCc1ccc(Cl)cc1Cl` (stereo not drawn) [Compound 17] was 5.7 µM; that for `CCCCCCNC(=S)N(O)Cc1cccc(NC(=O)c2ccc(C(C)(C)C)cc2)c1` [Compound 85] was 18.6 µM.
On the same count and under the same terms, to `CSc1ccc(NC(=O)Nc2ccc(Cl)c(Cl)c2)cc1` [Compound 154] belongs 8.6 µM; to `CC(C)(C)c1ccc(C(=O)Nc2cccc(CN(O)C(=S)NCc3ccccc3)c2)cc1` [Compound 84], 15 µM.
On to `CCCC(c1cccc(Oc2ccc(C(C)(C)C)cc2)c1)N(O)C(=S)NCc1ccc(Cl)c(Cl)c1` (stereo not drawn) [Compound 31], for which the IC50 came out at 10 µM.
Same read-out and setting: the value for `Cc1nnc(NC(=O)Nc2ccc(Cl)c(Cl)c2)s1` [Compound 234, 1-(5-methyl-1,3,4-thiadiazol-2-yl)-3-(3,4-dichlorophenyl)urea] was 5 µM.
Same read-out and setting: the value for `CCCCCCNC(=S)N(O)Cc1ccc(OCc2ccc(C(C)=O)c(O)c2CCC)cc1` [Compound 68] was 19.7 µM.
On the same count and under the same terms, to `CCCCOc1ccc(NC(=S)N(O)C(CC)c2cccc(Oc3ccc(C(C)(C)C)cc3)c2)cc1` (stereo not drawn) [Compound 25] belongs 16 µM; to `CC(C)(C)c1ccc(Oc2ccc(NC(=S)NCc3ccc(Cl)c(Cl)c3)cc2)cc1` [Compound 133], 6.5 µM; to `CSc1ccc(NC(=O)Nc2cccc(Cl)c2)cc1Br` [Compound 162], 5.7 µM.
As to `CC(C)(C)c1ccc(Oc2ccc(NC(=S)NCCc3ccccn3)cc2)cc1` [Compound 123], the IC50 amounted to 12.3 µM.
On to `CC(c1cccc(Oc2ccc(C(C)(C)C)cc2)c1)N(O)C(=S)NCc1ccc(Cl)cc1` (stereo not drawn) [Compound 3], for which the IC50 stood at 11.7 µM.
For the compound `CC(C)(C)c1ccc(Oc2ccccc2NC(=S)Nc2ccc(Cl)c(C(F)(F)F)c2)cc1` [Compound 170], the IC50 is 4.4 µM.
Still for that read-out and setting: to `CC(C)(C)c1ccccc1Oc1ccc(NC(=S)Nc2cccc(C(F)(F)F)c2)cc1` [Compound 177] belongs 7.6 µM; to `CC(C)(C)c1ccc(Oc2cccc(NC(=S)Nc3ccc(Cl)c(C(F)(F)F)c3)c2)cc1` [Compound 168], 3.9 µM.
The same measure, in the same setting: to `CC(c1cccc(Oc2ccc(C(C)(C)C)cc2)c1)N(O)C(=S)NCc1ccccc1` (stereo not drawn) [Compound 1] belongs 11.2 µM.
On the same count and under the same terms, the value for `CC(C)(C)c1ccc(Oc2cccc(NC(=S)Nc3ccc(Cl)cc3)c2)cc1` [Compound 192] was 8.8 µM.
With `CCCCCCNC(=S)N(O)C(C)c1cccc(NC(=O)c2ccc(C(C)(C)C)cc2)c1` (stereo not drawn) [Compound 98], the IC50 amounted to 13 µM.
In the case of `CSc1ccc(NC(=O)Nc2ccc(Cl)c(Cl)c2)cc1` [Compound 149], the 50% inhibitory concentration (IC50) is 13.8 µM.
The same measure, in the same setting: to `CC(c1cccc(Oc2ccc(C(C)(C)C)cc2)c1)N(O)C(=S)NCc1cccc(Cl)c1` (stereo not drawn) [Compound 16] belongs 12 µM.
Still for that read-out and setting: the value for `CCCCCCNC(=S)N(O)C(C)c1cccc(Oc2ccc(C(C)(C)C)cc2)c1` (stereo not drawn) [Compound 19] was 11 µM.
The same measure, in the same setting: to `CC(C)(C)c1ccc(Oc2cccc(CNC(=S)NCc3ccc(Cl)c(C(F)(F)F)c3)c2)cc1` [Compound 41] belongs 4 µM; to `CC(C)(C)c1ccc(Oc2ccc(NC(=S)NC3CCCCC3)cc2)cc1` [Compound 119], 15.2 µM; to `CCCc1cc(C(C)(C)C)ccc1Oc1ccc(NC(=S)Nc2cccc(C(F)(F)F)c2)cc1` [Compound 195], 11 µM.
Consider `CC(C)(C)c1ccc(Oc2ccc(NC(=S)NCc3ccc(F)c(F)c3)cc2)cc1` [Compound 129], for which the half-maximal inhibitory concentration (IC50) was found to be 4.5 µM.
Same read-out and setting: the value for `CCCC(c1cccc(Oc2ccc(C(C)(C)C)cc2)c1)N(O)C(=S)NCc1cccc(Cl)c1` (stereo not drawn) [Compound 30] was 9.1 µM.
Same read-out and setting: the value for `Cc1ccc(CNC(=S)N(O)C(C)c2cccc(Oc3ccc(C(C)(C)C)cc3)c2)cc1Cl` (stereo not drawn) [Compound 8] was 9 µM.
